In US9867795B2, “Nitrated lipids and methods of making and using thereof” (The UAB Research Foundation, priority 2004, dated 2018):

Legend:
[1] = •NO release from LNO2 by oxymyoglobin oxidation
Description: Apparent •NO formation was calculated from extents of oxymyoglobin oxidation in the visible wavelength range (spectrum) and at 580 nm (kinetic mode). Initial oxymyoglobin oxidation was calculated using a UV probe Version 1.10 (ε580 14.4 mM^−1 cm^−1). Decomposition of the NO2 group was followed at 268 nm and the appearance of oxidized products at 320 nm.
To monitor the concomitant decomposition of the parent LNO2 molecule, its UV spectrum was first analyzed. […] The decrease in absorbance at 268 nm paralleled •NO release, as detected by both EPR and oxymyoglobin oxidation.
The formation of •NO was followed by EPR (measuring cPTI formation) in the presence of different concentrations of octyl-β-glucopyranoside (OG) and octyl-thio-β-glucopyranoside (OTG). The rate of •NO release was constant and not influenced by these detergents until the critical micellar concentration (CMC) for each was achieved, after which •NO formation was inhibited as the volume of the hydrophobic environment increased (FIG. 24A). Similar results were obtained when measuring •NO formation via conversion of oxymyoglobin to metmyoglobin. Apparent •NO release rates remained constant until OG concentration reached ˜2.8 mg/ml (CMC=2.77 mg/ml (11)). […] The inhibition of the NO2 group loss at 268 nm was paralleled by inhibition of the formation of oxidation products at 320 nm, similarly paralleling the detergent-induced inhibition of •NO release observed by EPR and oxymyoglobin-based detection.

[2] = system: human vascular endothelial cells and macrophages; assay: Whole Human Genome Oligo Array gene expression; format: cell-based; parameters: CCNE1 down-regulated / CAMK1 down-regulated / TCF4 down-regulated / PPARGC1B down-regulated / RB1 down-regulated / TNF down-regulated / TYK2 down-regulated / STAT1 down-regulated / CAV3 down-regulated / EDARADD down-regulated / DAPK2 down-regulated / CASP8AP2 down-regulated / ITR down-regulated / RAC2 down-regulated / CDC2 down-regulated / CDC42 down-regulated / CCND3 down-regulated / PLAU down-regulated / EGR2 down-regulated / ADRB2 down-regulated / VASP down-regulated / FDPS down-regulated / IL11 down-regulated / AIF1 down-regulated / TGFB1 down-regulated / PIK3CB down-regulated / PTGS1 down-regulated / IRS1 down-regulated / TIMP2 down-regulated / PTGES2 down-regulated / PDGFRA down-regulated / TLR2 down-regulated / E2F2 down-regulated / RACGAP1 down-regulated / LDLR down-regulated / NCOR2 down-regulated / NCR1 down-regulated / CARD9 down-regulated / SRF down-regulated / PDGFA down-regulated / FLJ23091 down-regulated / BCL2A1 down-regulated / TIMP1 down-regulated / PDGFC down-regulated / TIMP3 down-regulated / ARHGEF1 down-regulated / FN1 down-regulated / MMP19 down-regulated / JUNB down-regulated / PPARD down-regulated / MYLK down-regulated / TGFBI down-regulated / ILK down-regulated / MAPKAPK3 down-regulated / ROCK1 down-regulated / IGF1 down-regulated / VEGFB down-regulated / ECGF1 down-regulated / GADD45A up-regulated / CASP1 up-regulated / CASP4 up-regulated / CCNA1 up-regulated / JUN up-regulated / CASP3 up-regulated / GADD45B up-regulated / AATK up-regulated / AMID up-regulated / IL10RA up-regulated / GADD45G up-regulated / IRS2 up-regulated / HO-1, heme oxygenase-1 up-regulated: dose or concentration left out as unconfirmed; conditions: 24 hours
Description: The nitroalkenes of the present invention also display regulatory actions towards the expression of genes related to inflammatory responses, cell growth, cell differentiation, cell signaling, cell death (apoptosis) and metabolism. For example, nitrolinoleate regulates gene expression in human vascular endothelial cells and macrophages. Cells were stimulated with vehicle and linoleic acid (2.5 μM, the latter two treatments as controls) and LNO2O ([…]) for 24 hours. The total RNA was purified with a Qiagen Kit and analyzed with a Whole Human Genome Oligo Array (G4112A, 41K Genes, Agilent). […] In contrast, the native (precursor) fatty acid, linoleic acid, only regulates 14 genes, with an up-regulation of 5 genes and the down-regulation of 9 genes.

[3] = LNO2 130 μM, oxymyoglobin 20 μM
[4] = LNO2O 2.5 mM, linoleic acid 2.5 μM

Question: With “10-nitro-9,12-octadecadienoic acid and 12-nitro-9,12-octadecadienoic acid [LNO2]” as the substance, how does the “apparent rate constant for •NO release” value ([1]; 100 mM phosphate buffer, 100 μM DTPA, pH 7.4, oxymyoglobin to metmyoglobin) read?
Answer: The value was 9.67e-06 s⁻¹.

Question: What about the “OG concentration up to which apparent •NO release rates remained constant” value [1, 3] of the same substance?
Answer: Its value is ~2.8 mg/mL.

Question: And the “OTG concentration at which inhibition of LNO2-dependent •NO release occurred” value [1, 3]?
Answer: The value was ~7 mg/mL.

Question: And the AATK up-regulated [2]?
Answer: The AATK up-regulated was 1.503.

Question: What about the AMID up-regulated [2] of the same substance?
Answer: Its AMID up-regulated is 8.362.

Question: And the CASP1 up-regulated [2]?
Answer: The CASP1 up-regulated was 2.572.

Question: What about the CASP3 up-regulated [2] of the same substance?
Answer: Its CASP3 up-regulated is 1.689.

Question: What about the CASP4 up-regulated [2] of the same substance?
Answer: Its CASP4 up-regulated is 2.57.

Question: What about the CCNA1 up-regulated [2] of the same substance?
Answer: The CCNA1 up-regulated was 2.558.

Question: And the GADD45A up-regulated [2]?
Answer: Its GADD45A up-regulated is 2.823.

Question: What about the GADD45B up-regulated [2] of the same substance?
Answer: The GADD45B up-regulated was 1.674.

Question: And the GADD45G up-regulated [2]?
Answer: Its GADD45G up-regulated is 3.155.

Question: What about the “HO-1, heme oxygenase-1 up-regulated” value [2] of the same substance?
Answer: Its value is 4.086.

Question: And the IL10RA up-regulated [2]?
Answer: Its IL10RA up-regulated is 3.173.

Question: And the IRS2 up-regulated [2]?
Answer: Its IRS2 up-regulated is 3.243.

Question: What about the JUN up-regulated [2] of the same substance?
Answer: Its JUN up-regulated is 2.454.

Question: And the “number of genes down-regulated” value [2, 4]?
Answer: Its value is > 3000 genes.

Question: What about the “number of genes regulated” value [2, 4] of the same substance?
Answer: Its value is > 5000 genes.

Question: And the “number of genes up-regulated” value [2, 4]?
Answer: Its value is > 2300 genes.

Question: What about the ADRB2 down-regulated ([2]; p < 0.05) of the same substance?
Answer: The ADRB2 down-regulated was 2.04 fold.

Question: And the AIF1 down-regulated ([2]; p < 0.05)?
Answer: Its AIF1 down-regulated is 3.95 fold.

Question: And the ARHGEF1 down-regulated ([2]; p < 0.05)?
Answer: The ARHGEF1 down-regulated was 1.64 fold.

Question: And the BCL2A1 down-regulated ([2]; p < 0.05)?
Answer: Its BCL2A1 down-regulated is 3.50 fold.

Question: And the CAMK1 down-regulated ([2]; p < 0.05)?
Answer: The CAMK1 down-regulated was 2.24 fold.

Question: What about the CARD9 down-regulated ([2]; p < 0.05) of the same substance?
Answer: The CARD9 down-regulated was 3.33 fold.

Question: And the CASP8AP2 down-regulated ([2]; p < 0.05)?
Answer: The CASP8AP2 down-regulated was 1.52 fold.

Question: What about the CAV3 down-regulated ([2]; p < 0.05) of the same substance?
Answer: Its CAV3 down-regulated is 1.76 fold.

Question: What about the CCND3 down-regulated ([2]; p < 0.05) of the same substance?
Answer: The CCND3 down-regulated was 1.51 fold.

Question: What about the CCNE1 down-regulated ([2]; p < 0.05) of the same substance?
Answer: Its CCNE1 down-regulated is 1.58 fold.

Question: And the CDC2 down-regulated ([2]; p < 0.05)?
Answer: Its CDC2 down-regulated is 2.75 fold.

Question: What about the CDC42 down-regulated ([2]; p < 0.05) of the same substance?
Answer: The CDC42 down-regulated was 1.65 fold.

Question: What about the DAPK2 down-regulated ([2]; p < 0.05) of the same substance?
Answer: Its DAPK2 down-regulated is 1.73 fold.

Question: What about the E2F2 down-regulated ([2]; p < 0.05) of the same substance?
Answer: The E2F2 down-regulated was 3.70 fold.

Question: And the ECGF1 down-regulated ([2]; p < 0.05)?
Answer: Its ECGF1 down-regulated is 1.73 fold.

Question: And the EDARADD down-regulated ([2]; p < 0.05)?
Answer: The EDARADD down-regulated was 1.69 fold.

Question: What about the EGR2 down-regulated ([2]; p < 0.05) of the same substance?
Answer: The EGR2 down-regulated was 2.65 fold.

Question: And the FDPS down-regulated ([2]; p < 0.05)?
Answer: The FDPS down-regulated was 2.46 fold.

Question: And the FLJ23091 down-regulated ([2]; p < 0.05)?
Answer: The FLJ23091 down-regulated was 1.74 fold.

Question: What about the FN1 down-regulated ([2]; p < 0.05) of the same substance?
Answer: Its FN1 down-regulated is 3.33 fold.

Question: What about the IGF1 down-regulated ([2]; p < 0.05) of the same substance?
Answer: Its IGF1 down-regulated is 1.54 fold.

Question: And the IL11 down-regulated ([2]; p < 0.05)?
Answer: Its IL11 down-regulated is 2.02 fold.

Question: And the ILK down-regulated ([2]; p < 0.05)?
Answer: The ILK down-regulated was 2.94 fold.

Question: And the IRS1 down-regulated ([2]; p < 0.05)?
Answer: The IRS1 down-regulated was 2.40 fold.

Question: What about the ITR down-regulated ([2]; p < 0.05) of the same substance?
Answer: Its ITR down-regulated is 1.68 fold.

Question: And the JUNB down-regulated ([2]; p < 0.05)?
Answer: Its JUNB down-regulated is 1.60 fold.

Question: What about the LDLR down-regulated ([2]; p < 0.05) of the same substance?
Answer: Its LDLR down-regulated is 1.77 fold.

Question: And the MAPKAPK3 down-regulated ([2]; p < 0.05)?
Answer: Its MAPKAPK3 down-regulated is 2.18 fold.

Question: And the MMP19 down-regulated ([2]; p < 0.05)?
Answer: Its MMP19 down-regulated is 1.58 fold.

Question: What about the MYLK down-regulated ([2]; p < 0.05) of the same substance?
Answer: The MYLK down-regulated was 3.13 fold.

Question: And the NCOR2 down-regulated ([2]; p < 0.05)?
Answer: The NCOR2 down-regulated was 1.59 fold.

Question: What about the NCR1 down-regulated ([2]; p < 0.05) of the same substance?
Answer: The NCR1 down-regulated was 2.30 fold.

Question: And the PDGFA down-regulated ([2]; p < 0.05)?
Answer: The PDGFA down-regulated was 2.27 fold.

Question: What about the PDGFC down-regulated ([2]; p < 0.05) of the same substance?
Answer: Its PDGFC down-regulated is 1.72 fold.

Question: And the PDGFRA down-regulated ([2]; p < 0.05)?
Answer: Its PDGFRA down-regulated is 2.36 fold.

Question: What about the PIK3CB down-regulated ([2]; p < 0.05) of the same substance?
Answer: Its PIK3CB down-regulated is 1.93 fold.

Question: What about the PLAU down-regulated ([2]; p < 0.05) of the same substance?
Answer: The PLAU down-regulated was 7.58 fold.

Question: What about the PPARD down-regulated ([2]; p < 0.05) of the same substance?
Answer: Its PPARD down-regulated is 3.12 fold.

Question: And the PPARGC1B down-regulated ([2]; p < 0.05)?
Answer: Its PPARGC1B down-regulated is 2.20 fold.

Question: And the PTGES2 down-regulated ([2]; p < 0.05)?
Answer: Its PTGES2 down-regulated is 1.59 fold.

Question: And the PTGS1 down-regulated ([2]; p < 0.05)?
Answer: Its PTGS1 down-regulated is 3.95 fold.

Question: What about the RAC2 down-regulated ([2]; p < 0.05) of the same substance?
Answer: Its RAC2 down-regulated is 2.47 fold.

Question: And the RACGAP1 down-regulated ([2]; p < 0.05)?
Answer: The RACGAP1 down-regulated was 2.35 fold.

Question: What about the RB1 down-regulated ([2]; p < 0.05) of the same substance?
Answer: Its RB1 down-regulated is 2.06 fold.

Question: What about the ROCK1 down-regulated ([2]; p < 0.05) of the same substance?
Answer: Its ROCK1 down-regulated is 1.59 fold.

Question: And the SRF down-regulated ([2]; p < 0.05)?
Answer: Its SRF down-regulated is 1.56 fold.

Question: What about the STAT1 down-regulated ([2]; p < 0.05) of the same substance?
Answer: The STAT1 down-regulated was 1.74 fold.

Question: What about the TCF4 down-regulated ([2]; p < 0.05) of the same substance?
Answer: The TCF4 down-regulated was 2.63 fold.

Question: And the TGFB1 down-regulated ([2]; p < 0.05)?
Answer: Its TGFB1 down-regulated is 2.46 fold.

Question: And the TGFBI down-regulated ([2]; p < 0.05)?
Answer: Its TGFBI down-regulated is 9.80 fold.

Question: What about the TIMP1 down-regulated ([2]; p < 0.05) of the same substance?
Answer: The TIMP1 down-regulated was 3.62 fold.

Question: What about the TIMP2 down-regulated ([2]; p < 0.05) of the same substance?
Answer: Its TIMP2 down-regulated is 1.92 fold.

Question: What about the TIMP3 down-regulated ([2]; p < 0.05) of the same substance?
Answer: The TIMP3 down-regulated was 2.27 fold.

Question: And the TLR2 down-regulated ([2]; p < 0.05)?
Answer: Its TLR2 down-regulated is 1.89 fold.

Question: What about the TNF down-regulated ([2]; p < 0.05) of the same substance?
Answer: Its TNF down-regulated is 2.01 fold.

Question: And the TYK2 down-regulated ([2]; p < 0.05)?
Answer: The TYK2 down-regulated was 2.00 fold.

Question: And the VASP down-regulated ([2]; p < 0.05)?
Answer: Its VASP down-regulated is 4.85 fold.

Question: What about the VEGFB down-regulated ([2]; p < 0.05) of the same substance?
Answer: Its VEGFB down-regulated is 1.51 fold.
